Columns and labels:
[1] = target: T1, β-amyloid peptide (his-Aβ 1-40) with Aβ 1-42 fibrils (Homo sapiens, UniProt P05067); assay: Colloid drug screen for aggregate inhibition at high peptide concentration, with pre-formed Aβ 1-42 fibrils; format: biochemical; settings: 20 uM his-Aβ 1-40 + 1 uM Aβ 1-42 fibrils; 5 ul drug (2.9 mg/ml in DMSO) in 100 ul; 37° C. 4-6 hours; microscope 40×
T1 construct: 10 ul of a 200 uM solution of his-Aβ 1-40 peptide in phosphate buffer; 3.3 ul of 30 uM Aβ 1-42 fibrils (non-histidine-tagged) was added to each well
From the text: (§1) Compositions were identified that inhibit aggregation characteristic of neurodegenerative disease at high B-amyloid peptide concentration, low peptide concentration, and in some cases both. Compositions that inhibited aggregation at high concentration inhibited formation where an assay included B-amyloid peptide and at least some amount of pre-formed aggregate characteristic of neurodegenerative disease. Compositions that inhibited aggregation at low concentration inhibited […] in the presence of β-amyloid peptide but in the absence of any pre-formed aggregate characteristic of neurodegenerative disease.
In another drug screening method, drugs were incubated with Aβ 1-42 fibrils, which will convert normal Aβ 1-40 peptides to the fibrillar form at a faster rate than Aβ 1-40 fibrils. Histidine-tagged Aβ 1-40 peptides were then added to the wells, along with colloids derivatized with self-assembled monolayers containing NTA-Ni for the attachment of histidine-tagged Aβ 1-40. It was previously shown that Aβ 1-42 fibrils will cause accelerated conversion of Aβ 1-40, which will then incorporate into large aggregates structures. These aggregates are colored red by the colloids attached to the peptides, and are easily visible under the microscope.
5 ul of each drug in DMSO was added to the wells of a 96-well ELISA plate, which contained 52 ul of phosphate buffer. […]

[2] = target: T2, β-amyloid peptide (his-Aβ 1-40) (Homo sapiens, UniProt P05067); assay: Colloid colorimetric drug screen for fibril inhibition at low peptide concentration, no pre-formed aggregate; format: biochemical; settings: 5 uM his-Aβ 1-40, no pre-formed aggregate; 5 ul drug (2.9 mg/ml in DMSO); 37C 1.5-2 hours; well stays pink vs blue
T2 construct: 10 ul of a 50 uM solution of his-Aβ 1-40 peptide in phosphate buffer
From the text: as §1
In one drug screening method, histidine-tagged AB 1-40 peptides were immobilized on colloids derivatized with self-assembled monolayers containing NTA-Ni for the attachment of histidine-tagged peptides. It has been previously shown that the Aβ peptides, if not inhibited by a drug, will spontaneously convert to the fibrillar form and aggregate, pulling the colloids close together, and causing a color change from pink to blue.
Drugs from the Sigma-RBI Library of Pharmacologically Active Compounds (LOPAC; #SC001, 1999) were dissolved in dimethyl sulphoxide (DMSO) to a final concentration of 2.9 mg/ml. […]

[3] = tested on: Amyloid Precursor Protein (APP) in HEK cells; assay: Colorimetric whole cell screening assay for drugs that effect APP production, secretion, or cleavage; format: cell-based, Human; settings: HEK cells expressing APP; 1.25 ul of 2.9 mg/mL drug in DMSO per well, approx. 18 hours; then 5 uM His-AB colloids 8-12 hours
Experimental: Human Embryonic Kidney (HEK) cells expressing the Amyloid Precursor Protein (APP) were split into the wells of a 96-well cell-culture plate and were allowed to adhere and spread. […] Positive control cells were given DMSO in place of a drug. […] Cells were allowed to grow overnight for approximately 18 hours at 37C. After 18 hours, 1.925 mL of a 30 uM solution of His-tagged AB(1-40) in phosphate buffer was mixed with 2.880 mL 40 uM NTA colloids for a resulting concentration of 12 uM His-AB. 50 ul of the AB colloid solution was added to each well of the cell-culture plate, which contained 70 ul cell culture media per well. […] The plates were incubated at 37C for 8-12 hours, or until a color change from pink to blue occurred in the positive controls.
Once the positive controls changed color from pink to blue, the wells containing drug candidates were visually examined for a color change. […] Cell death due to drug toxicity would obviously effect APP production, and may cause a well to remain pink. For this reason, all wells containing drug candidates were examined under the microscope for cell viability.

T1 sequence (P05067 672-713): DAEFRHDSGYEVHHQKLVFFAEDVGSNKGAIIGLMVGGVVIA
T1 sequence (P05067 672-711): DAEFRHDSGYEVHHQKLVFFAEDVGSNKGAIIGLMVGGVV
T2 sequence (P05067 672-711): as above

COc1cc(Cc2cnc(N)nc2N)cc(OC)c1OC [trimethoprim]
do not provide a positive result: inhibition of aggregate formation at high peptide concentration [1] | inhibition of aggregate formation at low peptide concentration [2] | effect on APP production, secretion, or cleavage (lack of color change pink to blue) [3]

— patent US20030060487A1, “Treatment of neurodegenerative disease” (priority 2000, published 2003)
